Data published in PubChem BioAssay AID248 (DTP/NCI, 2004).
“And” between values parts separate entries of the source, which are not always exact repeats. Identical values can stand only once. Toxic doses and inconclusive results are not listed.

Test system: L1210 leukemia ip in BDF1 mice, survival T/C
Assay: NCI In Vivo Anticancer Drug Screen. Data for tumor model L1210 Leukemia (intraperitoneal) in B6D2F1 (BDF1) mice
Conditions: endpoint: mean survival time, higher = longer survival
Outline: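 Value reflects the ratio of survival in compound-treated mice to survival in vehicle-treated controls, with both groups carrying the same transplanted tumor.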

[1] = dose: 100.0 mg/kg/injection, schedule: Q04DX003 (ip), vehicle: saline
[2] = dose: 200.0 mg/kg/injection, schedule: Q04DX003 (ip), vehicle: saline
[3] = dose: 100.0 mg/kg/injection, schedule: Q01DX001 (ip), vehicle: saline
[4] = dose: 200.0 mg/kg/injection, schedule: Q01DX001 (ip), vehicle: saline
[5] = dose: 400.0 mg/kg/injection, schedule: Q01DX001 (ip), vehicle: saline

Q: CC(CCC(CCCCC(CCC(C)CC(C)(C)C)CCC(C)CC(C)(C)C)CCC(C)CC(C)(C)C)CC(C)(C)C (configuration not stated) was tested. Which T/C (dose: 75.0 mg/kg/injection, schedule: Q01DX001 (ip), vehicle: saline with Tween-80) did it give?
A: 103 % of control

Q: What about the T/C (dose: 150.0 mg/kg/injection, schedule: Q01DX001 (ip), vehicle: saline with Tween-80) of the same compound?
A: 98 % of control

Q: What about the T/C (dose: 300.0 mg/kg/injection, schedule: Q01DX001 (ip), vehicle: saline with Tween-80) of the same compound?
A: 98 % of control

Q: For O=[N+]([O-])c1ccc2nc(-c3ccccc3)nn2c1, which T/C (dose: 100.0 mg/kg/injection, schedule: Q01DX001 (ip), vehicle: acetone) is on record?
A: 92 % of control

Q: What about the T/C (dose: 200.0 mg/kg/injection, schedule: Q01DX001 (ip), vehicle: acetone) of the same compound?
A: 87 % of control

Q: And the T/C (dose: 400.0 mg/kg/injection, schedule: Q01DX001 (ip), vehicle: acetone)?
A: 93 % of control

Q: Which T/C (dose: 2.0 mg/kg/injection, schedule: Q01DX009 (ip), vehicle: saline) does the source give for O=C(O)C1(C(=O)O)CCC1.[NH2-].[NH2-].[Pt+2] here?
A: 97 % of control

Q: What about the T/C (dose: 4.0 mg/kg/injection, schedule: Q01DX001 (ip), vehicle: saline) of the same compound?
A: 100 % of control

Q: And the T/C (dose: 4.0 mg/kg/injection, schedule: Q01DX009 (ip), vehicle: saline)?
A: 100 % of control

Q: What about the T/C (dose: 8.0 mg/kg/injection, schedule: Q01DX001 (ip), vehicle: saline) of the same compound?
A: 100 % of control

Q: And the T/C (dose: 8.0 mg/kg/injection, schedule: Q01DX009 (ip), vehicle: saline)?
A: 108 % of control

Q: And the T/C (dose: 16.0 mg/kg/injection, schedule: Q01DX001 (ip), vehicle: saline)?
A: 102 % of control

Q: What about the T/C (dose: 16.0 mg/kg/injection, schedule: Q01DX009 (ip), vehicle: saline) of the same compound?
A: 119 % of control

Q: What about the T/C (dose: 25.0 mg/kg/injection, schedule: Q04DX003 (ip), vehicle: saline) of the same compound?
A: 110 % of control and 113 % of control

Q: What about the T/C (dose: 64.0 mg/kg/injection, schedule: Q01DX009 (ip), vehicle: saline) of the same compound?
A: 171 % of control

Q: And the T/C [1]?
A: 154 % of control and 176 % of control

Q: What about the T/C (dose: 128.0 mg/kg/injection, schedule: Q01DX001 (ip), vehicle: saline) of the same compound?
A: 152 % of control

Q: What about the T/C [2] of the same compound?
A: 97 % of control and 105 % of control

Q: What does the source list for Cc1c(-c2ccccc2)cc(O)cc1-c1ccccc1?
A: T/C (dose: 25.0 mg/kg/injection, schedule: Q01DX009 (ip), vehicle: saline): 98 % of control; T/C (dose: 50.0 mg/kg/injection, schedule: Q01DX009 (ip), vehicle: saline): 98 % of control; T/C (dose: 100.0 mg/kg/injection, schedule: Q01DX009 (ip), vehicle: saline): 105 % of control; T/C (dose: 200.0 mg/kg/injection, schedule: Q01DX009 (ip), vehicle: saline): 100 % of control

Q: Which results are given for CCN(CC)c1ccc(N=C2C=C(C(=O)Nc3ccc(C(=O)O)cc3)C(=O)c3ccccc32)c(C)c1?
A: T/C [3]: 102 % of control; T/C [4]: 100 % of control; T/C [5]: 102 % of control

Q: O=C(NCCO)Nc1ccccc1Cl was tested. Which T/C (dose: 100.0 mg/kg/injection, schedule: Q04DX002 (ip), vehicle: saline) did it give?
A: 103 % of control

Q: And the T/C (dose: 200.0 mg/kg/injection, schedule: Q04DX002 (ip), vehicle: saline)?
A: 100 % of control

Q: What about the T/C (dose: 400.0 mg/kg/injection, schedule: Q04DX002 (ip), vehicle: saline) of the same compound?
A: 100 % of control

Q: What does the source list for CN=NC(C)(c1ccc(Cl)cc1)C(C)(N=NC)c1ccc(Cl)cc1 (configuration not stated)?
A: T/C (dose: 17.5 mg/kg/injection, schedule: Q01DX009 (ip), vehicle: Klucel (hydroxypropylcellulose) (HPC)): 92 % of control; T/C (dose: 35.0 mg/kg/injection, schedule: Q01DX009 (ip), vehicle: Klucel (hydroxypropylcellulose) (HPC)): 103 % of control; T/C (dose: 70.0 mg/kg/injection, schedule: Q01DX009 (ip), vehicle: Klucel (hydroxypropylcellulose) (HPC)): 100 % of control

Q: How did the T/C (dose: 100.0 mg/kg/injection, schedule: Q04DX003 (ip), vehicle: saline with Tween-80) turn out when Oc1ccc(-c2ccccc2)cc1Br was run?
A: 101 % of control

Q: What about the T/C (dose: 200.0 mg/kg/injection, schedule: Q04DX003 (ip), vehicle: saline with Tween-80) of the same compound?
A: 111 % of control

Q: CC1Cn2ccc(=O)nc2S1 (configuration not stated) was tested. Which T/C (dose: 50.0 mg/kg/injection, schedule: Q01DX001 (ip), vehicle: saline) did it give?
A: 112 % of control

Q: And the T/C [3]?
A: 110 % of control

Q: And the T/C [4]?
A: 105 % of control

Q: What does the source list for CCNC(=S)NCCO?
A: T/C (dose: 100.0 mg/kg/injection, schedule: Q04DX003 (ip), vehicle: saline sonified): 97 % of control; T/C (dose: 200.0 mg/kg/injection, schedule: Q04DX003 (ip), vehicle: saline sonified): 90 % of control; T/C (dose: 400.0 mg/kg/injection, schedule: Q04DX003 (ip), vehicle: saline sonified): 97 % of control

Q: Which results are given for CC(C)CCC1(C)CC(=O)Nc2ccccc21 (configuration not stated)?
A: T/C [3]: 97 % of control; T/C [4]: 94 % of control; T/C [5]: 95 % of control

Q: With CC1CC(NC(=O)N(CCCl)N=O)CC(C)(C)C1 (configuration not stated) as the compound, how does the T/C (dose: 8.0 mg/kg/injection, schedule: Q01DX001 (ip), vehicle: other) read?
A: 96 % of control

Q: What about the T/C (dose: 16.0 mg/kg/injection, schedule: Q01DX001 (ip), vehicle: other) of the same compound?
A: 94 % of control

Q: And the T/C (dose: 31.0 mg/kg/injection, schedule: Q01DX001 (ip), vehicle: other)?
A: 105 % of control

Q: And the T/C (dose: 62.0 mg/kg/injection, schedule: Q01DX001 (ip), vehicle: other)?
A: 120 % of control

Q: And the T/C (dose: 250.0 mg/kg/injection, schedule: Q01DX001 (ip), vehicle: other)?
A: 157 % of control

Q: And the T/C (dose: 375.0 mg/kg/injection, schedule: Q01DX001 (ip), vehicle: other)?
A: 292 % of control

Q: What about the T/C (dose: 500.0 mg/kg/injection, schedule: Q01DX001 (ip), vehicle: other) of the same compound?
A: 308 % of control

Q: And the T/C (dose: 750.0 mg/kg/injection, schedule: Q01DX001 (ip), vehicle: other)?
A: 333 % of control

Q: How did the T/C (dose: 50.0 mg/kg/injection, schedule: Q01DX001 (ip), vehicle: carboxymethylcellulose (CMC)) turn out when NS(N)(=O)=O was run?
A: 88 % of control

Q: And the T/C (dose: 100.0 mg/kg/injection, schedule: Q01DX001 (ip), vehicle: carboxymethylcellulose (CMC))?
A: 95 % of control

Q: And the T/C (dose: 200.0 mg/kg/injection, schedule: Q01DX001 (ip), vehicle: carboxymethylcellulose (CMC))?
A: 98 % of control

Q: And the T/C (dose: 400.0 mg/kg/injection, schedule: Q01DX001 (ip), vehicle: carboxymethylcellulose (CMC))?
A: 98 % of control

Q: Which results are given for CSc1cccc(NC2=NCCO2)c1?
A: T/C (dose: 50.0 mg/kg/injection, schedule: Q04DX002 (ip), vehicle: saline with Tween-80): 103 % of control; T/C (dose: 100.0 mg/kg/injection, schedule: Q04DX002 (ip), vehicle: saline with Tween-80): 98 % of control; T/C (dose: 200.0 mg/kg/injection, schedule: Q04DX002 (ip), vehicle: saline with Tween-80): 88 % of control; T/C (dose: 400.0 mg/kg/injection, schedule: Q04DX002 (ip), vehicle: saline with Tween-80): 95 % of control

Q: Which results are given for Cn1cc(C2=CC(=O)C=CC2=O)c2ccccc21?
A: T/C (dose: 5.0 mg/kg/injection, schedule: Q01DX001 (ip), vehicle: saline): 102 % of control; T/C (dose: 10.0 mg/kg/injection, schedule: Q01DX001 (ip), vehicle: saline): 111 % of control; T/C (dose: 20.0 mg/kg/injection, schedule: Q01DX001 (ip), vehicle: saline): 104 % of control; T/C (dose: 40.0 mg/kg/injection, schedule: Q01DX001 (ip), vehicle: saline): 98 % of control

Q: For COc1ccc(C(O)c2nnc(C(O)c3ccc(OC)cc3)nn2)cc1 (configuration not stated), which T/C (dose: 100.0 mg/kg/injection, schedule: Q01DX009 (ip), vehicle: saline with Tween-80) is on record?
A: 96 % of control

Q: And the T/C (dose: 100.0 mg/kg/injection, schedule: Q04DX002 (ip), vehicle: Klucel (hydroxypropylcellulose) (HPC))?
A: 103 % of control

Q: What about the T/C (dose: 200.0 mg/kg/injection, schedule: Q01DX009 (ip), vehicle: saline with Tween-80) of the same compound?
A: 96 % of control

Q: And the T/C (dose: 200.0 mg/kg/injection, schedule: Q04DX002 (ip), vehicle: Klucel (hydroxypropylcellulose) (HPC))?
A: 90 % of control

Q: And the T/C (dose: 400.0 mg/kg/injection, schedule: Q01DX009 (ip), vehicle: saline with Tween-80)?
A: 86 % of control

Q: What about the T/C (dose: 400.0 mg/kg/injection, schedule: Q04DX002 (ip), vehicle: Klucel (hydroxypropylcellulose) (HPC)) of the same compound?
A: 100 % of control

Q: For C=C(C)COc1c(C)c(C)c(OS(=O)(=O)c2ccc(Br)cc2)c(C)c1C, which T/C (dose: 100.0 mg/kg/injection, schedule: Q01DX001 (ip), vehicle: Klucel (hydroxypropylcellulose) (HPC)) is on record?
A: 97 % of control

Q: What about the T/C (dose: 200.0 mg/kg/injection, schedule: Q01DX001 (ip), vehicle: Klucel (hydroxypropylcellulose) (HPC)) of the same compound?
A: 89 % of control

Q: And the T/C (dose: 400.0 mg/kg/injection, schedule: Q01DX001 (ip), vehicle: Klucel (hydroxypropylcellulose) (HPC))?
A: 100 % of control

Q: How did the T/C (dose: 50.0 mg/kg/injection, schedule: Q04DX003 (ip), vehicle: saline) turn out when CC(=O)C(C)(NCc1ccccc1)c1ccccc1 (configuration not stated) was run?
A: 97 % of control

Q: What about the T/C (dose: 100.0 mg/kg/injection, schedule: Q04DX003 (ip), vehicle: other) of the same compound?
A: 95 % of control

Q: What about the T/C [1] of the same compound?
A: 97 % of control

Q: What about the T/C (dose: 200.0 mg/kg/injection, schedule: Q04DX003 (ip), vehicle: other) of the same compound?
A: 93 % of control

Q: And the T/C [2]?
A: 102 % of control

Q: What about the T/C (dose: 400.0 mg/kg/injection, schedule: Q04DX003 (ip), vehicle: other) of the same compound?
A: 87 % of control
